For one assay, the system named is S. schenkii. Kind of assay: Antifungal activity: Minimum Inhibitory Concentration. The assay is classed as cell-based, Sporotrichon schenkii NCPF 3182. As to conditions: S. schenkii, 27° C., one week; for MIC: read-out: Minimum Inhibitory Concentration. As for the experimental part: (§1) The antimicrobial activity was determined by inoculation of the test microorganism into suitable growth media containing solutions of the compounds at concentrations of 100, 50, 10, 5, 1.0, 0.5 and 0.1 μg/ml. The reference antibiotics used were Gentamicin for the antibacterial tests and Amphotericin B for the antimycotic and antifungal tests. After incubation the antimicrobial activity was recorded as the Minimal Inhibitory Concentration (M.I.C.), i.e., the lowest concentration preventing macroscopically visible growth, for each test compound against each organism.
(§2) An initial solution of each formula (I) compound to be tested in sterile distilled water was prepared at a concentration of 1000 μg/ml. With appropriate dilutions using sterile distilled water, additional solutions were prepared at concentrations of 500, 100, 50, 10, 5 and 1 μg/ml.
(§3) The A. corymbifera, A. fumigatus, S. schenkii, T. rubrum, T. mentagrophytes, M. canis and P. verrucosa strains were all maintained on Sabouraud-Dextrose Agar (Oxoid CM 41) by incubating for 14 days at 27° C. To prepare the inocula 30 ml volumes of Sabouraud-Liquid medium (Oxoid CM 147) were inoculated from the agar cultures and incubated at 27° C. until heavy uniform growth resulted. The mycelial growth was then broken up by shaking with glass beads.
(§4) 1 Ml aliquots were removed from each of the cultures for the purpose of making viable counts and the cultures were then held at 4° C. The viable counts were made by preparing serial ten-fold dilutions of the cultures in sterile physiological saline and spreading on plates of Sabouraud-Dextrose Agar (Oxoid CM 41) which were then incubated at 27° C. for 14 days. When the viable counts had confirmed that each of the inocula contained approximately 10^6 colony forming units (C.F.U.) per ml the cultures were withdrawn from the refrigerator and used as the inocula for the tests.
(§5) (c) For the tests on each of the remaining seven strains and each of the test and reference compounds, a series of 8 tubes containing 4.5 ml volumes of Sabouraud-Liquid Medium (Oxoid CM 147) were prepared. To 7 of these were added 0.5 ml volumes of the final solutions of the test compounds, giving final concentrations in the broths of 100, 50, 10, 5, 1.0, 0.5 and 0.1 μg/ml. To the eighth tube in each series was added 0.5 ml of the solvent used and diluted as for the preparation of the 500 μg/ml solution of the compound. This tube was used as a growth control. The tubes were then inoculated with 0.1 ml aliquots of the inocula prepared as in "(b) Fungi" above. The tubes were then incubated at 27° C. with continuous shaking for a period of one week. The tubes were then examined for evidence of growth as shown by the presence of mycelial growth in the medium and the lowest concentration of the test compound which prevented fungal growth was recorded as the Minimal Inhibitory Concentration. This test procedure was carried out on two separate days.

Another assay deals with M. canis. Described as above. The assay is classed as cell-based, Microsporum canis NCPF 351. As to conditions: M. canis, 27° C., one week; for MIC: Microsporum canis, read-out: Minimum Inhibitory Concentration. On the procedure: as §1, §2, §3, §4, §5
A further assay deals with T. rubrum. The description is as above. The assay is classed as cell-based, Trichophyton rubrum NCPF 197. Conditions: T. rubrum, 27° C., one week; for MIC: Trichophyton rubrum, read-out: Minimum Inhibitory Concentration. On the procedure:
as §1, §2, §3, §4, §5

The test system of a further assay is E. coli. Kind of assay: Antibacterial activity: Minimum Inhibitory Concentration. Type of assay: cell-based, Escherichia coli ATCC 8739. As to conditions: 24 hours; for MIC: Escherichia coli. As for the experimental part:
as §1, §2
(§6) They were cultured and maintained on Tryptone Soy Agar (Oxoid CM 131), with the addition of 10% horse blood for the S. pyogenes.
(§7) To prepare the organisms as inocula for the test, slopes of this medium were streaked with the organisms and incubated at 37° C. for 24 hours. 4.5 Ml volumes of Brian-Heart Infusion Broth (Oxoid CM 225) were then inoculated with a platinum loop from the agar slope cultures and incubated for 24 hours at 37° C. The final inocula were then prepared by adding 0.1 ml aliquots of the Brain-Heart Infusion Broth cultures to 100 ml volumes of sterile physiological saline.
(§8) (a) For the test on each of the bacterial strains and each of the test and reference compounds, a series of 8 tubes containing 4.5 ml volumes of Brain-Heart Infusion Broth (Oxoid CM 225) were prepared. To 7 of these were added 0.5 ml volumes of the final solutions of the test compouns, giving final concentrations in the broths of 100, 50, 10, 5, 1.0, 0.5 and 0.1 μg/ml. To the eighth tube in each series was added 0.5 ml of the solvent used and diluted as for the preparation of the 1000 μg/ml solution of the compound. This tube was used as the growth control. The tubes were inoculated with 0.02 ml aliquots of the inocula prepared in accordance with "(a) Bacteria" above, and incubated at 37° C. for 24 hours. The tubes were then examined for evidence of bacterial growth as shown by turbidity of the medium and the lowest concentration of the test compound which prevented bacterial growth was recorded as the Minimal Inhibitory Concentration. This test procedure was carried out on two separate days.

The next assay relates to A. corymbifera. Briefly: Antifungal activity: Minimum Inhibitory Concentration. Type of assay: cell-based, Absidia corymbifera NCPF 2001. As to conditions: A. corymbifera, 27° C., one week; for MIC: Lichtheimia corymbifera, read-out: Minimum Inhibitory Concentration. As for the experimental part:
as §1, §2
A. corymbifera NCPF 2001
as §3, §4, §5

The next assay has as its system T. mentagrophytes. The description is as above. Conditions: T. mentagrophytes, 27° C., one week; for MIC: Trichophyton mentagrophytes, read-out: Minimum Inhibitory Concentration. The assay is classed as cell-based, Trichophyton mentagrophytes NCPF 410. As for the experimental part: as §1, §2
T. mentagrophytes NCPF 410
as §3, §4, §5

For another assay, the system named is P. aeruginosa. Kind of assay: Antibacterial activity: Minimum Inhibitory Concentration. Type of assay: cell-based, Pseudomonas aeruginosa ATCC 9027. Conditions: P. aeruginosa, 37° C., 24 hours; for MIC: Pseudomonas aeruginosa, read-out: Minimum Inhibitory Concentration. On the procedure: as §1, §2, §6, §7, §8
The next assay has as its system P. mirabilis. The assay is described as above. The assay is classed as cell-based, Proteus mirabilis NCTC 8559. As to conditions: P. mirabilis, 37° C., 24 hours; for MIC: Proteus mirabilis, read-out: Minimum Inhibitory Concentration. On the procedure: as §1, §2, §6, §7, §8

Read-outs that look alike come from different tables or passages of the source. Where only a bound is given, the exact number is not on record here.

Consider “2,3(5)-dimethyl-1-dodecyl-pyrazolium methosulfate [Example 8-A]”, for which the “Minimum Inhibitory Concentration” value is 10 µg/mL with S. schenkii (Day 1); 10 µg/mL in the assay with S. schenkii (Day 2); 5 µg/mL in the assay with M. canis (Day 1); 1 µg/mL in the assay on M. canis (Day 2); 5 µg/mL in the assay with T. rubrum (Day 1); 10 µg/mL with T. rubrum (Day 2). In addition, the “Minimum Inhibitory Concentration” value was found to be 50 µg/mL with E. coli (Day 1, 37° C.); 50 µg/mL in the assay with E. coli (Day 2, 37° C.); 100 µg/mL in the assay with A. corymbifera (Day 1); 100 µg/mL with A. corymbifera (Day 2); 5 µg/mL in the assay with T. mentagrophytes (Day 1); 5 µg/mL in the assay on T. mentagrophytes (Day 2). Further, the “Minimum Inhibitory Concentration” value is 50 µg/mL with P. aeruginosa (Day 1), 50 µg/mL in the assay on P. aeruginosa (Day 2), 100 µg/mL with P. mirabilis (Day 1) and 100 µg/mL with P. mirabilis (Day 2).
For “2,3(5)-dimethyl-1-hexadecyl-pyrazolium methosulfate [Example 9]”, the “Minimum Inhibitory Concentration” value with S. schenkii (Day 1), in the assay on S. schenkii (Day 2), in the assay with M. canis (Day 1), in the assay with M. canis (Day 2), in the assay on T. rubrum (Day 1) and in the assay with T. rubrum (Day 2) was 5 µg/mL each time. The “Minimum Inhibitory Concentration” value in the assay with E. coli (Day 1, 37° C.) came to 50 µg/mL; in the assay on E. coli (Day 2, 37° C.), 10 µg/mL; with A. corymbifera (Day 1), 10 µg/mL; with A. corymbifera (Day 2) it was 10 µg/mL; in the assay with T. mentagrophytes (Day 1), 5 µg/mL; in the assay with T. mentagrophytes (Day 2), 5 µg/mL. The “Minimum Inhibitory Concentration” value in the assay on P. aeruginosa (Day 1), in the assay on P. aeruginosa (Day 2), in the assay with P. mirabilis (Day 1) and with P. mirabilis (Day 2) was 10 µg/mL in each case.
Take `CCCCCCCCCCCCn1c(C)cc(C)[n+]1C` [Example 1, 1-dodecyl-2,3,5-trimethyl-pyrazolium methosulfate]: the MIC came to 50 µg/mL in the assay with S. schenkii (Day 1); 10 µg/mL in the assay on S. schenkii (Day 2); 5 µg/mL in the assay with M. canis (Day 1); 10 µg/mL with M. canis (Day 2); 10 µg/mL in the assay on T. rubrum (Day 1); 10 µg/mL with T. rubrum (Day 2). The MIC was 50 µg/mL in the assay with E. coli (Day 1, 37° C.); 100 µg/mL against E. coli (Day 2, 37° C.); more than 100 µg/mL in the assay on A. corymbifera (Day 1); more than 100 µg/mL in the assay on A. corymbifera (Day 2); 50 µg/mL in the assay with T. mentagrophytes (Day 1); 50 µg/mL in the assay on T. mentagrophytes (Day 2). For the same compound, the MIC is 50 µg/mL with P. aeruginosa (Day 1), 10 µg/mL in the assay on P. aeruginosa (Day 2), 100 µg/mL in the assay with P. mirabilis (Day 1) and 100 µg/mL in the assay on P. mirabilis (Day 2).
For `CCCCCCCCCCCCCCCCn1c(C)cc(C)[n+]1C` [Example 2, 1-hexadecyl-2,3,5-trimethyl-pyrazolium methosulfate], the MIC with S. schenkii (Day 1) amounted to 10 µg/mL; with S. schenkii (Day 2), 10 µg/mL; with M. canis (Day 1), 10 µg/mL; in the assay with M. canis (Day 2), 5 µg/mL; with T. rubrum (Day 1) it was 5 µg/mL; in the assay on T. rubrum (Day 2) it was 5 µg/mL. For the same compound, the MIC with E. coli (Day 1, 37° C.) was 10 µg/mL; in the assay on E. coli (Day 2, 37° C.), 5 µg/mL; with A. corymbifera (Day 1) it was 50 µg/mL; in the assay with A. corymbifera (Day 2), 50 µg/mL; in the assay with T. mentagrophytes (Day 1), 1 µg/mL; with T. mentagrophytes (Day 2), 5 µg/mL. The MIC was found to be 10 µg/mL in the assay on P. aeruginosa (Day 1), 5 µg/mL in the assay on P. aeruginosa (Day 2), 10 µg/mL with P. mirabilis (Day 1) and 10 µg/mL in the assay on P. mirabilis (Day 2).
With `CCCCCCCCCCCCCCCCn1ccc[n+]1C` [Example 3-D, 1-hexadecyl-2-methyl-pyrazolium methosulfate], the MIC in the assay on S. schenkii (Day 1) was found to be 5 µg/mL; with S. schenkii (Day 2), 10 µg/mL; with M. canis (Day 1) it was 5 µg/mL; in the assay with M. canis (Day 2), 5 µg/mL; with T. rubrum (Day 1) it was 1 µg/mL; with T. rubrum (Day 2), 1 µg/mL. For the same compound, the MIC in the assay with E. coli (Day 1, 37° C.) was found to be 10 µg/mL; with E. coli (Day 2, 37° C.), 5 µg/mL; in the assay with A. corymbifera (Day 1), 10 µg/mL; in the assay on A. corymbifera (Day 2) it was 5 µg/mL; in the assay on T. mentagrophytes (Day 1), 1 µg/mL; in the assay with T. mentagrophytes (Day 2), 1 µg/mL. The MIC with P. aeruginosa (Day 1) is 50 µg/mL; with P. aeruginosa (Day 2), 10 µg/mL; in the assay with P. mirabilis (Day 1), 10 µg/mL; in the assay on P. mirabilis (Day 2), 50 µg/mL.
As to `CCCCCCCCCCCCn1ccc[n+]1C` [Example 3-E, 1-dodecyl-2-methy-pyrazolium methosulfate], the MIC with S. schenkii (Day 1) came to 50 µg/mL; with S. schenkii (Day 2) it was 10 µg/mL; with M. canis (Day 1) it was 10 µg/mL; in the assay with M. canis (Day 2), 10 µg/mL; in the assay with T. rubrum (Day 1), 5 µg/mL; in the assay with T. rubrum (Day 2), 5 µg/mL. The MIC against E. coli (Day 1, 37° C.) stood at 50 µg/mL; against E. coli (Day 2, 37° C.), 50 µg/mL; with A. corymbifera (Day 1), 100 µg/mL; in the assay on A. corymbifera (Day 2), 100 µg/mL; with T. mentagrophytes (Day 1), 1 µg/mL; in the assay on T. mentagrophytes (Day 2), 5 µg/mL. The MIC in the assay with P. aeruginosa (Day 1) amounted to 50 µg/mL; with P. aeruginosa (Day 2), 50 µg/mL; with P. mirabilis (Day 1), 100 µg/mL; in the assay on P. mirabilis (Day 2), 100 µg/mL.

Source of the values: US4207326A, “Antimicrobial quaternary pyrazole derivatives” (Cilag-Chemie A.G., priority 1979, dated 1980).
